Reference: US20220024879A1, “COMPOUNDS FOR TREATMENT OF HEPACI VIRUS INFECTION AND METHOD FOR DETERMINING THERAPY OF HEPACI VIRUS INFECTION, IN PARTICULAR, HCV INFECTION” (priority 2018, published 2022)

Columns and labels:
[1] = system: Jc1 and HCV strains Con1 (GT1b), J8 (GT2b), S52 (GT3a), ED43 (GT4a), SA13 (GT5a), HK6a (GT6a) and QC69 (GT7a); type: cell-based; conditions: Jc1 versus GT1b, 2b, 3a, 4a, 5a, 6a, 7a strains
JcR2a/J8-E1-R3.2_4 aa = type: cell-based, Hepatitis C virus; conditions: M290A, W299N, V301T, P310Q
J8 (GT2b) = type: cell-based
JcR2a-E1 R4 = type: cell-based; conditions: 313-383
[2] = system: low pH-triggered HCV cell membrane fusion; conditions: earlier work of the applicant, data not shown; cited from earlier work
Jc1/J8-E1_R3 = type: cell-based; conditions: Aa 267-312
JcR2a-Flun-R [3] = conditions: Jc1 passaged in presence of flunarizine; Perin et al.; cited from earlier work
Jc1R2a/J8-E1 chimera = type: cell-based; conditions: entire E1 replaced
JcR2a/J8-E1_R1 = type: cell-based; conditions: Aa 192-230
JcR2a = assay: HCV whole life cycle compound screening assay; type: cell-based, Hepatitis C virus; conditions: Jc1 reporter virus, versus flunarizine
[4] = system: low pH-triggered HCV cell membrane fusion; assay: Fusion at the plasma membrane assay; type: cell-based, Hepatitis C virus; conditions: 5 nM Con A, pH 5.0 wash 5 minutes
JcR2a-Flun-R [5] = type: cell-based

| Compound | strain-dependent antiviral activity (in words) [1] | resistance of JcR2a/J8-E1-R3.2_4 aa, shift of the IC50 versus parental JcR2a (JcR2a/J8-E1-R3.2_4 aa) | resistance of J8 (GT2b) (in words) (J8 (GT2b)) | antiviral activity, effect of the substituent (SAR, in words) (JcR2a) | other results |
| --- | --- | --- | --- | --- | --- |
| CN1CCN(C(c2ccccc2)c2ccc(Cl)cc2)CC1 (centres unmarked) [chlorcyclizine] | preferentially inhibited Jc1 | 6 fold | pronounced resistance |  |  |
| Fc1ccc(C(c2ccc(F)cc2)N2CCN(C/C=C/c3ccccc3)CC2)cc1 [flunarizine] | preferentially inhibited Jc1 | 8 fold | pronounced resistance |  | susceptibility of chimera with J8 E1 region R4 (in words) (JcR2a-E1 R4): partial resistance; antiviral activity when applied only during the 5 minute low pH wash [2]: full antiviral activity; susceptibility of chimera with J8 E1 region R3 (in words) (Jc1/J8-E1_R3): resistance profile comparable to Jc1 encoding the flunarizine resistance mutations; resistance conferred by three mutations in E1 and E2 (JcR2a-Flun-R [3]): ca. 50 fold; susceptibility of chimeric virus with J8-derived E1 (in words) (Jc1R2a/J8-E1 chimera): resistant; susceptibility of chimera with J8 E1 region R1 (in words) (JcR2a/J8-E1_R1): partial resistance |
| C/C(=C\c1ccccc1)CN1CCN(C(c2ccc(F)cc2)c2ccc(F)cc2)CC1 [entry 20] |  |  |  | not beneficial |  |
| p-methoxy-flunarizine |  |  | pronounced resistance | beneficial | dose at which cell viability of treated cells was reduced by 50% (Huh-7.5-fluc cells): 9.6 µM |
| COc1ccc(-c2cc(=O)c3c(O)c(O)c(OC)cc3o2)cc1 [BJ486K] |  |  |  |  | inhibition of HCV infection when administered only during the low pH washing step [4]: did not inhibit HCV infection |
| COc1cc(/C=C/C(=O)CC(=O)/C=C/c2ccc(O)c(OC)c2)ccc1O [curcumin] | similarly active against all tested viruses | not |  |  | inhibition of JcR2a-Flun-R compared with JcR2a (in words) (JcR2a-Flun-R [5]): equally inhibited |
